In ChEMBL document CHEMBL1201862, “PubChem BioAssay data set” (2004):
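Cultured in 96-well plates, cells were exposed to test compound for 48 hours across five concentrations. At the GI50, growth is halved.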 The source made the active and inactive calls. No stated cut-off is given here; in the data, active = GI50 up to about 1.1 µM and inactive = higher.

Legend:
Assay in all cases: inhibition of tumour cell growth, NCI panel, 48 h
UO-31 = system: UO-31
Hs-578T = system: Hs-578T
M14 = system: M14
U-251 = system: U-251
CAKI-1 = system: CAKI-1
NCI-H226 = system: NCI-H226
OVCAR-8 = system: OVCAR-8
COLO 205 = system: COLO 205
SNB-75 = system: SNB-75
UACC-257 = system: UACC-257
LOX IMVI = system: LOX IMVI
SK-OV-3 = system: SK-OV-3
SN12C = system: SN12C
NCI/ADR-RES = system: NCI/ADR-RES
T47D = system: T47D
MCF7 = system: MCF7
Malme-3M = system: Malme-3M
TK-10 = system: TK-10
HCT-15 = system: HCT-15
EKVX = system: EKVX

Measured: GI50

O=[N+]([O-])c1ccc(C2=NOC(c3ccccc3)N2C23CC4CC(CC(C4)C2)C3)cc1 (stereo not given)
29.8 µM: HCT-15
inactive: UO-31 9.23 µM | Hs-578T 19.5 µM | M14 32.7 µM | U-251 34.6 µM | CAKI-1 1.36 µM | NCI-H226 30.5 µM | OVCAR-8 21.5 µM | COLO 205 30 µM | SNB-75 21.9 µM | UACC-257 47.8 µM | LOX IMVI 15.9 µM | SK-OV-3 43.2 µM | SN12C 46 µM | NCI/ADR-RES 35.8 µM | T47D 25.7 µM | MCF7 24.8 µM | Malme-3M 25.1 µM | TK-10 37.2 µM | EKVX 48.1 µM
